In this test the target is Retinoic acid receptor RXR-alpha (Homo sapiens) (UniProt P19793). Nature of the test: RXRalpha binders by radioligand displacement, dose response, biochemical, [3H]9-cis-retinoic acid (AID 1159611). The note with it: RXRalpha [3H]9-cis-retinoic acid displacement binding. A general note: Loss of bound radioactivity is the signal in a displacement assay; it reports binding, not function.
Chain of Retinoic acid receptor RXR-alpha (Homo sapiens) (P19793 whole entry, looked up): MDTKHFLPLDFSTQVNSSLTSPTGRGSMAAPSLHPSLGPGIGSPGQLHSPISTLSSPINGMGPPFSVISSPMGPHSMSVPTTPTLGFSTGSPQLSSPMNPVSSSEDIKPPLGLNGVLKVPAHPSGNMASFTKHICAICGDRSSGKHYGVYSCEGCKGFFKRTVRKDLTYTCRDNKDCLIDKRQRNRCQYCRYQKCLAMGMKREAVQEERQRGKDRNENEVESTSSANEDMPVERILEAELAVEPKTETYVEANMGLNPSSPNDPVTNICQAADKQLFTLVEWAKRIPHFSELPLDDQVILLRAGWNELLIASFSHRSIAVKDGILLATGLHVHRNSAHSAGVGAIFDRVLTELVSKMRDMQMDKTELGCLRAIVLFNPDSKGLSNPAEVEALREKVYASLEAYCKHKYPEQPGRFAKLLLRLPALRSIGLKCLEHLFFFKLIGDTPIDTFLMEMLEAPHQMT

A word on the IC50: it is the concentration that inhibits the measured activity by half. On to `CC1=C[C@H](O)CC(C)(C)[C@H]1/C=C/C(C)=C/C=C/C(C)=C/C=C/C=C(C)/C=C/C=C(C)/C=C/C1=C(C)C[C@@H](O)CC1(C)C`, for which the IC50 is 5.74 µM.
